Assay results as given in ChEMBL document CHEMBL4610017, “Discovery of 1,2,4-oxadiazole derivatives as a novel class of noncompetitive inhibitors of 3-hydroxykynurenine transaminase (HKT) from Aedes aegypti” (Bioorg Med Chem, 2020).
Calls of active or inactive are those of the source. The rule behind the calls is not given here.

Tests used:
[1] = Inhibition of recombinant Aedes aegypti RecLab N-terminal Trx-fused/His6-tagged 3-hydroxykynurenine transaminase H360M mutant expressed in Escherichia coli Rosetta 2 (DE3) assessed as conversion of 3-hydroxy kynurenine to xanthurenic-acid using 3-D,L hydroxy kynurenine as substrate preincubated with PLP cofactor and enzyme and 30 mins later incubated with 3-D,L-HK and measured after 5 mins by microplate reader assay
[2] = Competitive inhibition of Anopheles gambiae 3-hydroxykynurenine transaminase
[3] = system: Aedes aegypti; test: Non-competitive mixed inhibition of recombinant Aedes aegypti RecLab N-terminal Trx-fused /His6-tagged 3-hydroxykynurenine transaminase H360M mutant expressed in Escherichia coli Rosetta 2 (DE3) using varying level of 3-D,L hydroxy kynurenine as substrate by Lineweaver-Burk plot analysis
[4] = Binding affinity to recombinant Aedes aegypti RecLab N-terminal Trx-fused/His6-tagged 3-hydroxykynurenine transaminase H360M mutant expressed in Escherichia coli Rosetta 2 (DE3) assessed as inhibition constant for enzyme-substrate complex
[5] = Binding affinity to recombinant Aedes aegypti RecLab N-terminal Trx-fused/His6-tagged 3-hydroxykynurenine transaminase H360M mutant expressed in Escherichia coli Rosetta 2 (DE3) assessed as inhibition constant for free form of enzyme

Row | Compound | IC50 [1] [µM] | other results
1 | O=C(O)CCCc1nc(-c2ccc(Cl)cc2)no1 | 294 | –
2 | Nc1ccccc1C(=O)CCC(=O)O | – | Ki [2]: 300 µM
3 | O=C(O)CCCc1nc(-c2ccc(C(F)(F)F)cc2)no1 | 70 | –
4 | COc1ccc(-c2noc(CCCC(=O)O)n2)cc1 | 101 | –
5 | O=C(O)CCCc1nc(-c2ccc(Cl)c(Cl)c2)no1 | 64 | –

The remaining molecules from weak to strong by IC50 [1], led by results:

Row | IC50 [1] [µM] | Compound | other results
6 | 110 | O=C(O)CCCc1nc(-c2ccc(Br)cc2)no1 | –
7 | 88 | Cc1ccc(-c2noc(CCCC(=O)O)n2)cc1 | –
8 | 87 | O=C(O)CCCc1nc(-c2ccc3c(c2)OCO3)no1 | –
9 | 72 | O=C(O)CCCc1nc(-c2ccccc2)no1 | inhibition [3]: Active; Ki [4]: 1220 µM; Ki [5]: 360 µM
10 | 63 | O=C(O)CCCc1nc(-c2cccc3ccccc23)no1 | –
11 | 54 | Cc1cccc(-c2noc(CCCC(=O)O)n2)c1 | –
12 | 42 | O=C(O)CCCc1nc(-c2ccc(I)cc2)no1 | –
